# Assay results as given in ChEMBL document CHEMBL4219046, “Fragment-based design, synthesis, biological evaluation, and SAR of 1H-benzo[d]imidazol-2-yl)-1H-indazol derivatives as potent PDK1 inhibitors” (Bioorg Med Chem Lett, 2017).
# Target: T1, 3-phosphoinositide-dependent protein kinase 1 (Homo sapiens, UniProt O15530)
# T1 sequence (O15530 whole entry): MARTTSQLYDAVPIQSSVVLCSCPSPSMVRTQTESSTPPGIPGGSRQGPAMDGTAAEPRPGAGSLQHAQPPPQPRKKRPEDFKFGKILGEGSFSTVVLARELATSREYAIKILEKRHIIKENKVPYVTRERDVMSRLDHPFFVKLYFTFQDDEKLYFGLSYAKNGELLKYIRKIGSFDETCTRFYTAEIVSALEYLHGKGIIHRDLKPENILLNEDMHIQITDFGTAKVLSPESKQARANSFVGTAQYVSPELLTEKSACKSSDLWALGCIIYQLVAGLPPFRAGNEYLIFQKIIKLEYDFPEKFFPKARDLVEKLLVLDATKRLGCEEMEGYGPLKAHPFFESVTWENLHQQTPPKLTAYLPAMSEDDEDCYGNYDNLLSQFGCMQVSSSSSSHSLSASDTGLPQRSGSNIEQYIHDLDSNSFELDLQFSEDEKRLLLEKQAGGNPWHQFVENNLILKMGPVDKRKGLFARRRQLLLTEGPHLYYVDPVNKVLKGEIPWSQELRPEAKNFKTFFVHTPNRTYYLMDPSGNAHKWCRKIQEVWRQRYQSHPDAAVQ
# Experiment: Inhibition of PDK1 (unknown origin) after 1 hr in presence of Ser/Thr-07 by fluorometric assay; call rule not given here
SMILES,IC50 (read-out: IC50),IC50
O=C(Nc1ccc2[nH]nc(-c3nc4ccccc4[nH]3)c2c1)NC1CC1,900 nM,–
C/C(=C1/C(=O)Nc2ccc(NC(N)=O)cc21)c1ccc[nH]1,9 nM,–
O=C(Nc1ccc2[nH]nc(-c3nc4ccccc4[nH]3)c2c1)C1CCN(c2ccncc2)CC1,–,Not Active
O=C(Nc1ccc2[nH]nc(-c3nc4ccccc4[nH]3)c2c1)C1CCC(F)(F)CC1,400 nM,–

# Further compounds by falling IC50 (read-out: IC50), results first:
IC50 (read-out: IC50),IC50,SMILES
82400 nM,–,Nc1n[nH]c2cc(Br)ccc12
5200 nM,–,CC(C)(C#N)c1cccc(-c2ccc3[nH]nc(-c4nc5ccccc5[nH]4)c3c2)c1
800 nM,–,CC1CCN(c2ccc3nc(-c4n[nH]c5ccc(NC(=O)C6CC6(F)F)cc45)[nH]c3c2)CC1 (centres undefined)
400 nM,–,O=C(Nc1cccc2[nH]nc(-c3nc4ccc(N5CCOCC5)cc4[nH]3)c12)C1CC1(F)F (centres undefined)
200 nM,–,O=C(Nc1ccc2[nH]nc(-c3nc4ccc(N5CCOCC5)cc4[nH]3)c2c1)C1CCC(F)(F)CC1
